From the supplement of paper PMC5908809

Legend:
NKL (IL-2 2.5 ng/mL) [1] = test: drug sensitivity score (DSS) (DSS units); higher = more sensitive; extreme values may be limits of the assay; details: 72 h
[2] = tested on: normal primary NK cells, pool 2 (3 donors) (IL-2 2.5 ng/mL); test: as above; details: 72 h
NK-92 (IL-2 2.5 ng/mL) [3] = test: as above; details: 72 h
DERL-7 (IL-2 2.5 ng/mL) [4] = test: as above; details: 72 h
[5] = tested on: normal primary NK cells, pool 1 (3 donors), resting (IL-2 0 ng/mL); test: as above; details: 72 h
[6] = tested on: normal primary NK cells, pool 1 (3 donors) (IL-2 2.5 ng/mL); test: as above; details: 72 h
YT (IL-2 2.5 ng/mL) [7] = test: as above; details: 72 h
NK-YS (IL-2 2.5 ng/mL) [8] = test: as above; details: 72 h
SNK-6 (IL-2 2.5 ng/mL) [9] = test: as above; details: 72 h
IMC-1 (IL-2 20 ng/mL) [10] = test: as above; details: 72 h
KAI3 (IL-2 2.5 ng/mL) [11] = test: as above; details: 72 h
KHYG-1 (IL-2 2.5 ng/mL) [12] = test: as above; details: 72 h
[13] = tested on: normal primary NK cells, pool 3 (3 donors) (IL-2 2.5 ng/mL); test: as above; details: 72 h
[14] = tested on: normal NK cells expanded with K562-aAPC; test: as above; details: 72 h; IL-2 2.5 ng/mL
Procedure: (§1)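 Drug sensitivity and resistance testing on K562-aAPC-expanded normal NK cells: 5 concentrations (10-fold steps over a 10,000-fold range), 72 h at 37 °C, viability by CellTiter-Glo normalised to DMSO and benzethonium chloride controls; DSS from the fitted curve.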

NKL (IL-2 2.5 ng/mL) [15] = test: percent inhibition of viability; higher = more inhibition; details: 72 h
[16] = tested on: normal primary NK cells, pool 2 (3 donors) (IL-2 2.5 ng/mL); test: as above; details: 72 h
NK-92 (IL-2 2.5 ng/mL) [17] = test: as above; details: 72 h
DERL-7 (IL-2 2.5 ng/mL) [18] = test: as above; details: 72 h
[19] = tested on: normal primary NK cells, pool 1 (3 donors), resting (IL-2 0 ng/mL); test: as above; details: 72 h
[20] = tested on: normal primary NK cells, pool 1 (3 donors) (IL-2 2.5 ng/mL); test: as above; details: 72 h
YT (IL-2 2.5 ng/mL) [21] = test: as above; details: 72 h
NK-YS (IL-2 2.5 ng/mL) [22] = test: as above; details: 72 h
SNK-6 (IL-2 2.5 ng/mL) [23] = test: as above; details: 72 h
IMC-1 (IL-2 20 ng/mL) [24] = test: as above; details: 72 h
KAI3 (IL-2 2.5 ng/mL) [25] = test: as above; details: 72 h
KHYG-1 (IL-2 2.5 ng/mL) [26] = test: as above; details: 72 h
[27] = tested on: normal primary NK cells, pool 3 (3 donors) (IL-2 2.5 ng/mL); test: as above; details: 72 h
[28] = tested on: normal NK cells expanded with K562-aAPC; test: as above; details: 72 h, IL-2 2.5 ng/mL
Procedure: as §1

CC(C)n1cnc2c(NCCc3ccc(O)cc3)nc(-c3csc4ccccc34)nc21 [StemRegenin 1] (max concentration tested 10000 nM)
Details | drug sensitivity score
DERL-7 (IL-2 2.5 ng/mL) [4] | 21.1
IMC-1 (IL-2 20 ng/mL) [10] | 0
KAI3 (IL-2 2.5 ng/mL) [11] | 4.25
KHYG-1 (IL-2 2.5 ng/mL) [12] | 6.85
NK-92 (IL-2 2.5 ng/mL) [3] | 10.6
NK-YS (IL-2 2.5 ng/mL) [8] | 1.09
NKL (IL-2 2.5 ng/mL) [1] | 7.36
SNK-6 (IL-2 2.5 ng/mL) [9] | 3.24
YT (IL-2 2.5 ng/mL) [7] | 4.83
[2] | 2.7
[5] | 6.2
[6] | 3.58
[13] | 1.7
[14] | 0

percent inhibition of viability [%]
Details | 1 nM | 10 nM | 100 nM | 1000 nM | 10000 nM
DERL-7 (IL-2 2.5 ng/mL) [18] | 2.23 | 15.4 | 50.9 | 71.1 | 96.4
IMC-1 (IL-2 20 ng/mL) [24] | -6.67 | -2.1 | -7.77 | -8.29 | 0.67
KAI3 (IL-2 2.5 ng/mL) [25] | -8.14 | 3.68 | 6.57 | -0.19 | 76.8
KHYG-1 (IL-2 2.5 ng/mL) [26] | -5.41 | -0.83 | 0.98 | 8.59 | 98.9
NK-92 (IL-2 2.5 ng/mL) [17] | -11 | -16.6 | 1.48 | 39.2 | 97.7
NK-YS (IL-2 2.5 ng/mL) [22] | -3.67 | -6.84 | -5.59 | 1.14 | 24.9
NKL (IL-2 2.5 ng/mL) [15] | -9.52 | 0.88 | 5.6 | 18.4 | 80.4
SNK-6 (IL-2 2.5 ng/mL) [23] | -6.98 | 28.7 | -5.97 | -12.5 | 71.9
YT (IL-2 2.5 ng/mL) [21] | -5.32 | -2.81 | 0.29 | 5.57 | 71.9
[16] | -1.53 | -2.41 | -0.22 | -2.53 | 54.6
[19] | -11.7 | -11.1 | 15.2 | 12.3 | 74.7
[20] | -8.25 | -4.37 | -0.27 | 7.52 | 45
[27] | -3.75 | -2.11 | -2.9 | -0.23 | 36
[28] | -5.56 | -5.75 | -5.39 | -7.57 | 0.59

CN(Cc1cnc2nc(N)nc(N)c2n1)c1ccc(C(=O)N[C@@H](CCC(=O)O)C(=O)O)cc1 [Methotrexate] (max concentration tested 5000 nM)
Details | drug sensitivity score
DERL-7 (IL-2 2.5 ng/mL) [4] | 7.89
IMC-1 (IL-2 20 ng/mL) [10] | 26.7
KAI3 (IL-2 2.5 ng/mL) [11] | 25.6
KHYG-1 (IL-2 2.5 ng/mL) [12] | 29.8
NK-92 (IL-2 2.5 ng/mL) [3] | 24.3
NK-YS (IL-2 2.5 ng/mL) [8] | 27.5
NKL (IL-2 2.5 ng/mL) [1] | 16.1
SNK-6 (IL-2 2.5 ng/mL) [9] | 27.2
YT (IL-2 2.5 ng/mL) [7] | 20.5
[2] | 0.89
[5] | 1.25
[6] | 0
[13] | 0.89
[14] | 5.62

percent inhibition of viability [%]
Details | 0.5 nM | 5 nM | 50 nM | 500 nM | 5000 nM
DERL-7 (IL-2 2.5 ng/mL) [18] | 1.41 | 1.81 | -8.11 | 43.7 | 51.8
IMC-1 (IL-2 20 ng/mL) [24] | -3.79 | 5.79 | 72.9 | 95.6 | 97.3
KAI3 (IL-2 2.5 ng/mL) [25] | 2.61 | 9.06 | 73.1 | 86.4 | 80.6
KHYG-1 (IL-2 2.5 ng/mL) [26] | 1.68 | 0.21 | 95.2 | 104 | 99.2
NK-92 (IL-2 2.5 ng/mL) [17] | -11.1 | 6.17 | 69.3 | 84 | 80.7
NK-YS (IL-2 2.5 ng/mL) [22] | 7.63 | 4.28 | 83.5 | 93 | 87.1
NKL (IL-2 2.5 ng/mL) [15] | -5.39 | -6.27 | 40.4 | 61.1 | 58.2
SNK-6 (IL-2 2.5 ng/mL) [23] | 2.63 | 21 | 76.8 | 81.2 | 82.7
YT (IL-2 2.5 ng/mL) [21] | 5.17 | 3.44 | 63.8 | 54.4 | 48.9
[16] | -8.41 | -4.79 | -9.59 | -5.9 | -3.72
[19] | -7.95 | -0.85 | 11.4 | 8.67 | 18.2
[20] | -2.85 | -7.99 | 1.44 | -1.93 | -0.84
[27] | -11.3 | -6.43 | -11.2 | -2.82 | -3.84
[28] | -3.65 | -3.48 | -3.07 | 34 | 31.4

CCN(CC)CCOc1ccc(C(=C(Cl)c2ccccc2)c2ccccc2)cc1 [Clomifene] (max concentration tested 10000 nM)
Details | drug sensitivity score
DERL-7 (IL-2 2.5 ng/mL) [4] | 7.34
IMC-1 (IL-2 20 ng/mL) [10] | 5.71
KAI3 (IL-2 2.5 ng/mL) [11] | 8.38
KHYG-1 (IL-2 2.5 ng/mL) [12] | 6.7
NK-92 (IL-2 2.5 ng/mL) [3] | 8.7
NK-YS (IL-2 2.5 ng/mL) [8] | 3.68
NKL (IL-2 2.5 ng/mL) [1] | 6.51
SNK-6 (IL-2 2.5 ng/mL) [9] | 8.37
YT (IL-2 2.5 ng/mL) [7] | 5.67
[2] | 6.93
[5] | 6.86
[6] | 5.98
[13] | 4.97
[14] | 3.63

percent inhibition of viability [%]
Details | 1 nM | 10 nM | 100 nM | 1000 nM | 10000 nM
DERL-7 (IL-2 2.5 ng/mL) [18] | 4.06 | 0.91 | 9.39 | 20.4 | 79.7
IMC-1 (IL-2 20 ng/mL) [24] | -0.71 | -1.19 | 4.94 | 7.46 | 81.3
KAI3 (IL-2 2.5 ng/mL) [25] | 3.86 | 7.81 | 10.3 | 17.6 | 99.2
KHYG-1 (IL-2 2.5 ng/mL) [26] | 0.74 | -4.89 | 7.01 | 8.03 | 98
NK-92 (IL-2 2.5 ng/mL) [17] | -3.93 | -4.07 | 20.1 | 22.8 | 99.2
NK-YS (IL-2 2.5 ng/mL) [22] | -0.14 | 0.6 | 4.95 | 5.57 | 51.9
NKL (IL-2 2.5 ng/mL) [15] | 9.73 | -5.45 | 18.5 | 9.46 | 89.1
SNK-6 (IL-2 2.5 ng/mL) [23] | 23.4 | 4.68 | 23.5 | 22.9 | 96.8
YT (IL-2 2.5 ng/mL) [21] | 2.71 | -4.92 | 7.54 | 1.85 | 97.5
[16] | -3.18 | -2.06 | -0.72 | 14.9 | 80.9
[19] | -1.08 | 10.5 | -7.5 | 11 | 90.7
[20] | -14.7 | -1.65 | -8.5 | 6.72 | 89.3
[27] | 2.17 | 1.82 | -1.1 | 13.6 | 53.4
[28] | -4.27 | -4.95 | 6.21 | 5.94 | 49.9
